The nature of this data set: Solubility in acidic water (pH 1.2) at 37° C. (Test Example 1). Type of data set: physicochemical. The note with it: acidic water (pH 1.2) containing HCl, simulated gastric fluid, thermodynamic from solid, acidic water (pH 1.2) containing about 1N HCl, stirred 2 hours, filtered through 1 μm membrane, read-out: solubility of Cefditoren pivoxil in acidic water. The protocol:
The solid particles present in the composition of this invention were tested for the measurement of their water-solubility as shown in Test Example given hereinafter.
There was taken as a sample one gram of the yellow-colored powder (the composition of this invention), which was obtained in Example 6 above, and which consisted essentially of the particles as formed substantially from a homogeneous mixture comprising the amorphous substance of Cefditoren pivoxil and hydroxypropylmethyl cellulose, and in which the surface layer of said particles contained additionally hydroxypropyl cellulose. The sample so taken was placed in 250 ml of an acidic water (pH 1.2) containing about […] at 37° C. and stirred at 37° C. for 2 hours. The resulting aqueous solution was passed through a millipore (1 μm) membrane filter to remove the insoluble solid therefrom. The transparent aqueous solution here obtained, which contained Cefditoren pivoxil and the water-soluble cellulose derivatives above-mentioned as dissolved therein, was then measured in respect of the concentration of the Cefditoren pivoxil. […]

Values after ≈ are worked out from the molar mass of the structure shown.

As a reminder, the solubility is how much of the substance goes into solution per volume. Consider `CO/N=C(\C(=O)NC1C(=O)N2C(C(=O)OCOC(=O)C(C)(C)C)=C(/C=C\c3scnc3C)CS[C@H]12)c1csc(N)n1` (stereo partly shown) [7-[(Z)-2-(2-aminothiazol-4-yl)-2-methoxyiminoacetamido]-3-[(Z)-2-(4-methylthiazol-5-yl)ethenyl]-3-cephem-4-carboxylic acid pivaloyloxymethyl ester], for which the solubility at 2 h was roughly 0.4 mg/mL (≈ 644 µM).

These data come from patent US6486149B2, “Composition comprising a crystallographically stable, amorphous cephalosporin and processes for the preparation thereof” (Meiji Seika Kaisha Ltd., priority 1998, dated 2002).
